Experimental data: PubChem BioAssay AID2060894 (Molecular Pharmacology Branch, DTP, NCI, 2025)

Tested on: K12877-001-R-J1-PDC complex spheroid viability
Assay: Anticancer human tumor K12877-001-R-J1-PDC patient-derived lung adenocarcinoma cell line growth inhibition [RAS]
Settings: for viability, T/C: stronger effect = lower value
Summary of the method: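 Multi-cell-type spheroids: tumor cells plus HUVEC endothelial cells and mesenchymal stem cells. RAS-pathway inhibitors were combined with targeted agents, each dosed in half-log steps down from clinical Cmax, or from 10 microM when Cmax was unknown.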
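Also: spheroids exposed to agents for one week before readout.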
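For viability, T/C in this document: tumour cells co-cultured with HUVEC and mesenchymal stem cells in spheroids.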

Q: For `C=CC(=O)N1CCN(c2nc(OCC3CCCN3C)nc3c(F)c(-c4nc(N)cc(C)c4C(F)(F)F)c(Cl)cc23)C(C)C1` (centres undefined) + CCn1c(-c2cccnc2C(C)OC)c2c3cc(ccc31)N1CCOC(CC(NC(=O)C(C(C)C)N(C)C(=O)C3(F)CCN(C(=O)C#CC(C)(C)N(C)C)CC3)C(=O)N3CCCC(N3)C(=O)OCC(C)(C)C2)C1, which IC50 (curve of first compound, second compound 0.000949 µM) is on record?
A: > 1000 nM

Q: What about the IC50 (curve of first compound, second compound 0.003 µM) of the same compound?
A: > 1000 nM

Q: What about the IC50 (curve of first compound, second compound 0.00949 µM) of the same compound?
A: > 1000 nM

Q: And the IC50 (curve of first compound, second compound 0.03 µM)?
A: > 1000 nM

Q: And the IC50 (curve of first compound, second compound 0.0949 µM)?
A: > 1000 nM

Q: What about the IC50 (curve of first compound, second compound 0.3 µM) of the same compound?
A: > 1000 nM

Q: And the viability, T/C (second compound 0.000949 µM, first compound 0.00316 µM)?
A: 82%

Q: What about the viability, T/C (second compound 0.000949 µM, first compound 0.01 µM) of the same compound?
A: 83%

Q: What about the viability, T/C (second compound 0.000949 µM, first compound 0.0316 µM) of the same compound?
A: 83.5%

Q: And the viability, T/C (second compound 0.000949 µM, first compound 0.1 µM)?
A: 74.2%

Q: And the viability, T/C (second compound 0.000949 µM, first compound 0.316 µM)?
A: 76%

Q: And the viability, T/C (second compound 0.000949 µM, first compound 1 µM)?
A: 77.8%

Q: And the viability, T/C (second compound 0.003 µM, first compound 0.00316 µM)?
A: 78%

Q: And the viability, T/C (second compound 0.003 µM, first compound 0.01 µM)?
A: 61.3%

Q: What about the viability, T/C (second compound 0.003 µM, first compound 0.0316 µM) of the same compound?
A: 73.6%

Q: And the viability, T/C (second compound 0.003 µM, first compound 0.1 µM)?
A: 81.1%

Q: And the viability, T/C (second compound 0.003 µM, first compound 0.316 µM)?
A: 86%

Q: And the viability, T/C (second compound 0.003 µM, first compound 1 µM)?
A: 71.1%

Q: What about the viability, T/C (second compound 0.00949 µM, first compound 0.00316 µM) of the same compound?
A: 75.4%

Q: What about the viability, T/C (second compound 0.00949 µM, first compound 0.01 µM) of the same compound?
A: 83.9%

Q: What about the viability, T/C (second compound 0.00949 µM, first compound 0.0316 µM) of the same compound?
A: 77.5%

Q: What about the viability, T/C (second compound 0.00949 µM, first compound 0.1 µM) of the same compound?
A: 85.3%

Q: And the viability, T/C (second compound 0.00949 µM, first compound 0.316 µM)?
A: 85.5%

Q: And the viability, T/C (second compound 0.00949 µM, first compound 1 µM)?
A: 78.6%

Q: What about the viability, T/C (second compound 0.03 µM, first compound 0.00316 µM) of the same compound?
A: 77.4%

Q: What about the viability, T/C (second compound 0.03 µM, first compound 0.01 µM) of the same compound?
A: 76.1%

Q: And the viability, T/C (second compound 0.03 µM, first compound 0.0316 µM)?
A: 77.6%

Q: What about the viability, T/C (second compound 0.03 µM, first compound 0.1 µM) of the same compound?
A: 75.9%

Q: What about the viability, T/C (second compound 0.03 µM, first compound 0.316 µM) of the same compound?
A: 81.7%

Q: And the viability, T/C (second compound 0.03 µM, first compound 1 µM)?
A: 73.3%

Q: What about the viability, T/C (second compound 0.0949 µM, first compound 0.00316 µM) of the same compound?
A: 83.4%

Q: What about the viability, T/C (second compound 0.0949 µM, first compound 0.01 µM) of the same compound?
A: 70.5%

Q: What about the viability, T/C (second compound 0.0949 µM, first compound 0.0316 µM) of the same compound?
A: 79.7%

Q: And the viability, T/C (second compound 0.0949 µM, first compound 0.1 µM)?
A: 76.1%

Q: What about the viability, T/C (second compound 0.0949 µM, first compound 0.316 µM) of the same compound?
A: 73.8%

Q: And the viability, T/C (second compound 0.0949 µM, first compound 1 µM)?
A: 72.8%

Q: And the viability, T/C (second compound 0.3 µM, first compound 0.00316 µM)?
A: 58.1%

Q: And the viability, T/C (second compound 0.3 µM, first compound 0.01 µM)?
A: 67%

Q: And the viability, T/C (second compound 0.3 µM, first compound 0.0316 µM)?
A: 66.3%

Q: And the viability, T/C (second compound 0.3 µM, first compound 0.1 µM)?
A: 68.5%

Q: And the viability, T/C (second compound 0.3 µM, first compound 0.316 µM)?
A: 70%

Q: And the viability, T/C (second compound 0.3 µM, first compound 1 µM)?
A: 66.8%

Q: Which IC50 (curve of first compound, second compound 0.00316 µM) does the source give for `CCC(CC)c1cc(NC2CCC(N)C2)n2nccc2n1` (centres undefined) + C=CC(=O)N1CCN(c2nc(OCC3CCCN3C)nc3c(F)c(-c4nc(N)cc(C)c4C(F)(F)F)c(Cl)cc23)C(C)C1 here?
A: 1690 nM

Q: What about the IC50 (curve of first compound, second compound 0.01 µM) of the same compound?
A: 1430 nM

Q: What about the IC50 (curve of first compound, second compound 0.0316 µM) of the same compound?
A: 1580 nM

Q: And the IC50 (curve of first compound, second compound 0.1 µM)?
A: 1400 nM

Q: What about the IC50 (curve of first compound, second compound 0.316 µM) of the same compound?
A: 1480 nM

Q: What about the IC50 (curve of first compound, second compound 1 µM) of the same compound?
A: 1440 nM

Q: What about the viability, T/C (second compound 0.00316 µM, first compound 0.0316 µM) of the same compound?
A: 97%

Q: And the viability, T/C (second compound 0.00316 µM, first compound 0.1 µM)?
A: 94.7%

Q: And the viability, T/C (second compound 0.00316 µM, first compound 0.316 µM)?
A: 98%

Q: And the viability, T/C (second compound 0.00316 µM, first compound 1 µM)?
A: 89.6%

Q: And the viability, T/C (second compound 0.00316 µM, first compound 3.16 µM)?
A: 2.45%

Q: And the viability, T/C (second compound 0.00316 µM, first compound 10 µM)?
A: 0.94%

Q: And the viability, T/C (second compound 0.01 µM, first compound 0.0316 µM)?
A: 91.2%

Q: And the viability, T/C (second compound 0.01 µM, first compound 0.1 µM)?
A: 99.4%

Q: What about the viability, T/C (second compound 0.01 µM, first compound 0.316 µM) of the same compound?
A: 93.2%

Q: And the viability, T/C (second compound 0.01 µM, first compound 1 µM)?
A: 71.3%

Q: And the viability, T/C (second compound 0.01 µM, first compound 3.16 µM)?
A: 2.11%

Q: What about the viability, T/C (second compound 0.01 µM, first compound 10 µM) of the same compound?
A: 0.91%

Q: What about the viability, T/C (second compound 0.0316 µM, first compound 0.0316 µM) of the same compound?
A: 99.3%

Q: What about the viability, T/C (second compound 0.0316 µM, first compound 0.1 µM) of the same compound?
A: 95.7%

Q: And the viability, T/C (second compound 0.0316 µM, first compound 0.316 µM)?
A: 86.2%

Q: What about the viability, T/C (second compound 0.0316 µM, first compound 1 µM) of the same compound?
A: 81.5%

Q: What about the viability, T/C (second compound 0.0316 µM, first compound 3.16 µM) of the same compound?
A: 2.25%

Q: What about the viability, T/C (second compound 0.0316 µM, first compound 10 µM) of the same compound?
A: 1.53%

Q: And the viability, T/C (second compound 0.1 µM, first compound 0.0316 µM)?
A: 85.2%

Q: And the viability, T/C (second compound 0.1 µM, first compound 0.1 µM)?
A: 78.3%

Q: And the viability, T/C (second compound 0.1 µM, first compound 0.316 µM)?
A: 83.4%

Q: And the viability, T/C (second compound 0.1 µM, first compound 1 µM)?
A: 70%

Q: What about the viability, T/C (second compound 0.1 µM, first compound 3.16 µM) of the same compound?
A: 1.91%

Q: And the viability, T/C (second compound 0.1 µM, first compound 10 µM)?
A: 0.93%

Q: What about the viability, T/C (second compound 0.316 µM, first compound 0.0316 µM) of the same compound?
A: 88.3%

Q: What about the viability, T/C (second compound 0.316 µM, first compound 0.1 µM) of the same compound?
A: 91.9%

Q: What about the viability, T/C (second compound 0.316 µM, first compound 0.316 µM) of the same compound?
A: 86.3%

Q: And the viability, T/C (second compound 0.316 µM, first compound 1 µM)?
A: 74.7%

Q: What about the viability, T/C (second compound 0.316 µM, first compound 3.16 µM) of the same compound?
A: 2.48%

Q: And the viability, T/C (second compound 0.316 µM, first compound 10 µM)?
A: 0.97%

Q: What about the viability, T/C (second compound 1 µM, first compound 0.0316 µM) of the same compound?
A: 86.2%

Q: And the viability, T/C (second compound 1 µM, first compound 0.1 µM)?
A: 80.6%

Q: What about the viability, T/C (second compound 1 µM, first compound 0.316 µM) of the same compound?
A: 94.8%

Q: What about the viability, T/C (second compound 1 µM, first compound 1 µM) of the same compound?
A: 72.5%

Q: And the viability, T/C (second compound 1 µM, first compound 3.16 µM)?
A: 1.96%

Q: And the viability, T/C (second compound 1 µM, first compound 10 µM)?
A: 1.06%

Q: With `CC1(C)CCC(Nc2ncc(C(F)(F)F)c(-c3c[nH]c4c(P(C)(C)=O)c(C#N)ccc34)n2)CN1` (centres undefined) as the compound, how does the viability, T/C (compound 0.000949 µM) read?
A: 102% [middle of 4 runs]

Q: And the viability, T/C (compound 0.03 µM)?
A: 44.5% [middle of 4 runs]

Q: What about the viability, T/C (compound 0.0949 µM) of the same compound?
A: 33% [middle of 4 runs]

Q: And the viability, T/C (compound 0.3 µM)?
A: 28.3% [middle of 4 runs]

Q: And the IC50 (curve of compound)?
A: 27.1 nM [middle of 4 runs]
